The experiment relates to IL-6 (THP-1 cells). The experiment in a line: IL-6 inhibition in LPS-stimulated THP-1 monocytes (HTRF). The experiment is classed as cell-based. The conditions noted are these: Homo sapiens, IL-6 HTRF; for EC50: 500 ng/mL LPS, Table 6; for inhibition at 10 µM: LPS, Table 6, read-out: percent inhibition at 10 μM (given in parentheses for EC50 >10 μM). The method in brief: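 THP-1 cells in 1% FBS pre-incubated 2 h with compound (10-point 1:3 series from 10 μM, 0.1% DMSO), then stimulated with 500 ng/mL LPS for 22 h at 37 °C. IL-6 measured by HTRF 665/620 ratio, normalized to DMSO; EC50 by four-parameter fit, or % inhibition at 10 μM when EC50 >10 μM.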
(In general: In TR-FRET formats the signal depends on donor and acceptor labels being close together.)

As to `O=C(Nc1cncc(-c2ccc3[nH]nc(-c4nc5c(-c6cccc(F)c6)cccc5[nH]4)c3n2)c1)C1CC1` [Compound 20, N-(5-(3-(4-(3-Fluorophenyl)-1H-benzo[d]imidazol-2-yl)-1H-pyrazolo[4,3-b]pyridin-5-yl)pyridin-3-yl)cyclopropanecarboxamide], the EC50 (usually the concentration giving half of the maximal effect) is over 10 µM and the inhibition (commonly the relative decrease from the control value, in per cent) at 10 µM turned out to be 0%. For the compound `O=C(Nc1cncc(-c2ccc3[nH]nc(-c4nc5c(N6CCCCC6)cccc5[nH]4)c3n2)c1)C1CC1` [Compound 188, N-(5-(3-(4-(Piperidin-1-yl)-1H-benzo[d]imidazol-2-yl)-1H-pyrazolo[4,3-b]pyridin-5-yl)pyridin-3-yl)cyclopropanecarboxamide], the EC50 is over 10 µM and the inhibition at 10 µM worked out at 0%. In the same order, the values of `FC1(F)CCN(Cc2cncc(-c3ccc4[nH]nc(-c5nc6c(N7CCCCC7)cccc6[nH]5)c4n3)c2)C1` [Compound 194, 5-(5-((3,3-Difluoropyrrolidin-1-yl)methyl)pyridin-3-yl)-3-(4-(piperidin-1-yl)-1H-benzo[d]imidazol-2-yl)-1H-pyrazolo[4,3-b]pyridine] are over 10 µM and 46.9%. `CN1CCN(c2cccc3[nH]c(-c4n[nH]c5ccc(-c6cncc(NC(=O)C7CCCC7)c6)nc45)nc23)CC1` [Compound 246, N-(5-(3-(4-(4-Methylpiperazin-1-yl)-1H-benzo[d]imidazol-2-yl)-1H-pyrazolo [4,3-b]pyridin-5-yl)pyridin-3-yl)cyclopentanecarboxamide]: the EC50 was over 10 µM and the inhibition at 10 µM was found to be 35.7%. In turn, `CC(C)(C)CC(=O)Nc1cncc(-c2ccc3[nH]nc(-c4nc5ccccc5[nH]4)c3n2)c1` [Compound 268, N-(5-(3-(1H-Benzo[d]imidazol-2-yl)-1H-pyrazolo[4,3-b]pyridin-5-yl)pyridin-3-yl)-3,3-dimethylbutanamide] had an EC50 of 2.5 µM. `O=C(Nc1cncc(-c2ccc3[nH]nc(-c4nc5ccccc5[nH]4)c3n2)c1)C1CCCCC1` [Compound 275, N-(5-(3-(1H-Benzo[d]imidazol-2-yl)-1H-pyrazolo[4,3-b]pyridin-5-yl)pyridin-3-yl) cyclohexanecarboxamide] registered an EC50 of 1.84 µM. The compound `c1ccc(-c2ccc3[nH]nc(-c4nc5ccccc5[nH]4)c3n2)nc1` [Compound 280, 3-(1H-Benzo[d]imidazol-2-yl)-5-(pyridin-2-yl)-1H-pyrazolo[4,3-b]pyridine] had a half-maximal effective concentration (EC50) of 0.0727 µM. Turning to `CCCC(=O)Nc1cncc(-c2ccc3[nH]nc(-c4nc5c(-c6ccsc6)cccc5[nH]4)c3n2)c1` [Compound 297, N-(5-(3-(4-(Thiophen-3-yl)-1H-benzo[d]imidazol-2-yl)-1H-pyrazolo[4,3-b]pyridin-5-yl)pyridin-3-yl)butyramide], the EC50 was over 10 µM and the inhibition at 10 µM was 0%.

With `c1ccc(CNCc2cncc(-c3ccc4[nH]nc(-c5nc6c(-c7ccsc7)cccc6[nH]5)c4n3)c2)cc1` [Compound 304, N-Benzyl-1-(5-(3-(4-(thiophen-3-yl)-1H-benzo[d]imidazol-2-yl)-1H-pyrazolo[4,3-b]pyridin-5-yl)pyridin-3-yl)methanamine], the EC50 stood at 5.33 µM. With `c1csc(-c2cccc3[nH]c(-c4n[nH]c5ccc(-c6ccncc6)nc45)nc23)c1` [Compound 354, 5-(Pyridin-4-yl)-3-(4-(thiophen-2-yl)-1H-benzo[d]imidazol-2-yl)-1H-pyrazolo[4,3-b]pyridine], the EC50 was over 10 µM and the inhibition at 10 µM was 20.4%.

For `O=C(Nc1cncc(-c2ccc3[nH]nc(-c4nc5c(-c6cccs6)cccc5[nH]4)c3n2)c1)C1CC1` [Compound 356, N-(5-(3-(4-(Thiophen-2-yl)-1H-benzo[d]imidazol-2-yl)-1H-pyrazolo[4,3-b]pyridin-5-yl)pyridin-3-yl)cyclopropanecarboxamide], the EC50 is over 10 µM and the inhibition at 10 µM was found to be 25.7%. Compound `CN(C)CCNc1cc(F)cc(-c2cccc3[nH]c(-c4n[nH]c5ccc(-c6cncc(CNCC7CCCC7)c6)nc45)nc23)c1` [Compound 473, N^1-(3-(2-(5-(5-(((Cyclopentylmethyl)amino)methyl)pyridin-3-yl)-1H-pyrazolo[4,3-b]pyridin-3-yl)-1H-benzo[d]imidazol-4-yl)-5-fluorophenyl)-N^2,N^2-dimethylethane-1,2-diamine] yielded an EC50 of 4.26 µM. On the same count and under the same terms, the value for `CN(C)CCNc1cc(F)cc(-c2cccc3[nH]c(-c4n[nH]c5ccc(-c6ccccn6)nc45)nc23)c1` [Compound 476, N^1-(3-Fluoro-5-(2-(5-(pyridin-2-yl)-1H-pyrazolo[4,3-b]pyridin-3-yl)-1H-benzo[d]imidazol-4-yl)phenyl)-N^2,N^2-dimethylethane-1,2diamine] was 8.75 µM.

`CS(=O)(=O)NCc1cc(F)cc(-c2cccc3[nH]c(-c4n[nH]c5ccc(-c6cncc(CNCc7ccccc7)c6)nc45)nc23)c1` [Compound 500, N-(3-(2-(5-(5-((Benzylamino)methyl)pyridin-3-yl)-1H-pyrazolo[4,3-b]pyridin-3-yl)-1H-benzo[d]imidazol-4-yl)-5-fluorobenzyl)methanesulfonamide]: the midpoint of the response, the EC50, lay at 1.34 µM.

In turn, `CS(=O)(=O)NCc1cc(F)cc(-c2cccc3[nH]c(-c4n[nH]c5ccc(-c6cncnc6)nc45)nc23)c1` [Compound 503, N-(3-Fluoro-5-(2-(5-(pyrimidin-5-yl)-1H-pyrazolo[4,3-b]pyridin-3-yl)-1H-benzo[d]imidazol-4-yl)benzyl)methanesulfonamide] displayed an EC50 of 3.71 µM. The compound `Fc1cccc(-c2cccc3[nH]c(-c4n[nH]c5ccc(-c6cncc(OCCN7CCCC7)c6)nc45)nc23)c1` [Compound 514, 3-(4-(3-Fluorophenyl)-1H-benzo[d]imidazol-2-yl)-5-(5-(2-(pyrrolidin-1-yl)ethoxy)pyridin-3-yl)-1H-pyrazolo[4,3-b]pyridine] gave an EC50 of 0.727 µM.

`c1cncc(-c2cccc3[nH]c(-c4n[nH]c5ccc(-c6cncc(OC7CCCCC7)c6)nc45)nc23)c1` [Compound 559, 5-(5-(Cyclohexyloxy)pyridin-3-yl)-3-(4-(pyridin-3-yl)-1H-benzo[d]imidazol-2-yl)-1H-pyrazolo[4,3-b]pyridine] gave an EC50 of 0.0028 µM. Turning to `Oc1cncc(-c2ccc3[nH]nc(-c4nc5c(-c6cccnc6)cccc5[nH]4)c3n2)c1` [Compound 565, 5-(3-(4-(Pyridin-3-yl)-1H-benzo[d]imidazol-2-yl)-1H-pyrazolo[4,3-b]pyridin-5-yl)pyridin-3-ol], the concentration giving a half-maximal response (EC50) is 0.232 µM. For `c1cc(N2CCCCC2)c2nc(-c3n[nH]c4ccc(-c5cncc(OCCN6CCCC6)c5)nc34)[nH]c2c1` [Compound 610, 3-(4-(Piperidin-1-yl)-1H-benzo[d]imidazol-2-yl)-5-(5-(2-(pyrrolidin-1-yl)ethoxy)pyridin-3-yl)-1H-pyrazolo[4,3-b]pyridine], the half-maximal effective concentration (EC50) was determined as 0.695 µM. Take `COc1cncc(-c2ccc3[nH]nc(-c4nc5c(N6CCCCC6)cccc5[nH]4)c3n2)c1` [Compound 612, 5-(5-Methoxypyridin-3-yl)-3-(4-(piperidin-1-yl)-1H-benzo[d]imidazol-2-yl)-1H-pyrazolo[4,3-b]pyridine]: the EC50 was over 10 µM and the inhibition at 10 µM amounted to 34.2%. Turning to `Oc1cncc(-c2ccc3[nH]nc(-c4nc5c(N6CCCCC6)cccc5[nH]4)c3n2)c1` [Compound 613, 5-(3-(4-(Piperidin-1-yl)-1H-benzo[d]imidazol-2-yl)-1H-pyrazolo[4,3-b]pyridin-5-yl)pyridin-3-ol], a half-maximal effect (EC50) was put at 6.77 µM. For `CN1CCN(c2cccc3[nH]c(-c4n[nH]c5ccc(-c6cncc(OC7CCCCC7)c6)nc45)nc23)CC1` [Compound 639, 5-(5-(Cyclohexyloxy)pyridin-3-yl)-3-(4-(4-methylpiperazin-1-yl)-1H-benzo [d]imidazol-2-yl)-1H-pyrazolo[4,3-b]pyridine], the response was half-maximal at 4.9 µM (EC50). As for `CN1CCN(c2cccc3[nH]c(-c4n[nH]c5ccc(-c6cncc(OCc7ccccc7)c6)nc45)nc23)CC1` [Compound 646, 5-(5-(Benzyloxy)pyridin-3-yl)-3-(4-(4-methylpiperazin-1-yl)-1H-benzo[d]imidazol-2-yl)-1H-pyrazolo[4,3-b]pyridine], the EC50 stood at 3.34 µM.

The record behind these values is patent US10392383B2, “3-(1H-benzo[d]imidazol-2-yl)-1H-pyrazolo[4,3-b]pyridines and therapeutic uses thereof” (Samumed, LLC, priority 2015, dated 2019).
